{
  "source": "patent US4593093A",
  "about": "“Acyl derivatives” (priority 1980, dated 1986)",
  "key": {"[1]": {"tested_on": "Escherichia coli", "experiment": "Activity in vivo: survival of intraperitoneally infected mice", "conditions": "sc, 96 h; mice infected i.p. with Escherichia coli; s.c. twice, 1 h and 3 h after infection; survival on 4th day; read-out: CD50 (dosage at which 50% of the animals survive)", "procedure,_shortened": "(§1)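 The read-out was survival on the 4th day, expressed as the CD50 (mg/kg) interpolated from several doses. Mice in groups of 5 received an intraperitoneal aqueous bacterial suspension, then subcutaneous compound in physiological sodium chloride solution 1 and 3 hours later.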"}, "[2]": {"tested_on": "Klebsiella pneumoniae", "experiment": "Activity in vivo: survival of intraperitoneally infected mice", "conditions": "sc, 96 h; mice infected i.p. with Klebsiella pneumoniae; s.c. twice, 1 h and 3 h after infection; survival on 4th day; read-out: CD50 (dosage at which 50% of the animals survive)", "procedure,_shortened": "as §1"}, "[3]": {"tested_on": "Staphylococcus aureus", "experiment": "Activity in vivo: survival of intraperitoneally infected mice", "conditions": "sc, 96 h; mice infected i.p. with Staphylococcus aureus; s.c. twice, 1 h and 3 h after infection; survival on 4th day; read-out: CD50 (dosage at which 50% of the animals survive)", "procedure,_shortened": "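Intraperitoneal infection of 5-mouse groups, followed by two subcutaneous saline-formulated doses at 1 h and 3 h. CD50 in mg/kg interpolated from day-4 survival.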"}, "[4]": {"tested_on": "Streptococcus pyogenes", "experiment": "Activity in vivo: survival of intraperitoneally infected mice", "conditions": "sc, 96 h; mice infected i.p. with Streptococcus pyogenes; s.c. twice, 1 h and 3 h after infection; survival on 4th day; read-out: CD50 (dosage at which 50% of the animals survive)", "procedure,_shortened": "as §1"}, "[5]": {"tested_on": "Pseudomonas aeruginosa", "experiment": "Activity in vivo: survival of intraperitoneally infected mice", "conditions": "sc, 96 h; mice infected i.p. with Pseudomonas aeruginosa; s.c. three times, 1 h, 3 h and 5 h after infection; survival on 4th day; read-out: CD50 (dosage at which 50% of the animals survive)", "procedure,_shortened": "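Mice (5/group) infected intraperitoneally, then given compound in physiological saline subcutaneously at 1 and 3 h post-infection (in some cases three times, at 1, 3 and 5 h). Survivors counted on day 4; CD50 (mg/kg), the dose giving 50% survival, interpolated from several dosages.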"}, "[6]": {"experiment": "Toxicity, LD50", "conditions": "in vivo, po"}, "[7]": {"tested_on": "Escherichia coli", "experiment": "Activity in vitro: minimum inhibitory concentration", "assay_type": "cell-based"}, "[8]": {"tested_on": "Proteus mirabilis", "experiment": "Activity in vitro: minimum inhibitory concentration", "assay_type": "cell-based"}, "[9]": {"tested_on": "Proteus morganii", "experiment": "Activity in vitro: minimum inhibitory concentration", "assay_type": "cell-based", "conditions": "Morganella morganii"}, "[10]": {"tested_on": "Proteus rettgeri", "experiment": "Activity in vitro: minimum inhibitory concentration", "assay_type": "cell-based", "conditions": "Providencia rettgeri"}, "[11]": {"tested_on": "Proteus inconstans", "experiment": "Activity in vitro: minimum inhibitory concentration", "assay_type": "cell-based", "conditions": "Providencia alcalifaciens"}, "[12]": {"tested_on": "Klebsiella pseumoniae", "experiment": "Activity in vitro: minimum inhibitory concentration", "assay_type": "cell-based"}, "[13]": {"tested_on": "Serratia marcescens", "experiment": "Activity in vitro: minimum inhibitory concentration", "assay_type": "cell-based"}, "[14]": {"tested_on": "Enterobacter cloacae", "experiment": "Activity in vitro: minimum inhibitory concentration", "assay_type": "cell-based"}, "[15]": {"tested_on": "Enterobacter aerogenes", "experiment": "Activity in vitro: minimum inhibitory concentration", "assay_type": "cell-based", "conditions": "Klebsiella aerogenes"}, "[16]": {"tested_on": "Citrobacter freundii", "experiment": "Activity in vitro: minimum inhibitory concentration", "assay_type": "cell-based"}, "[17]": {"tested_on": "Pseudomonas aeruginosa", "experiment": "Activity in vitro: minimum inhibitory concentration", "assay_type": "cell-based"}, "[18]": {"tested_on": "Staphylococcus aureus", "experiment": "Activity in vitro: minimum inhibitory concentration", "assay_type": "cell-based"}, "[19]": {"tested_on": "Staphylococcus epidermis", "experiment": "Activity in vitro: minimum inhibitory concentration", "assay_type": "cell-based"}, "[20]": {"tested_on": "Streptococcus faecalis", "experiment": "Activity in vitro: minimum inhibitory concentration", "assay_type": "cell-based", "conditions": "Enterococcus faecalis"}, "[21]": {"tested_on": "Streptococcus pyogenes", "experiment": "Activity in vitro: minimum inhibitory concentration", "assay_type": "cell-based"}, "[22]": {"tested_on": "Streptococcus pneumoniae", "experiment": "Activity in vitro: minimum inhibitory concentration", "assay_type": "cell-based"}, "[23]": {"tested_on": "Streptococcus viridans", "experiment": "Activity in vitro: minimum inhibitory concentration", "assay_type": "cell-based"}, "[24]": {"tested_on": "Serratia marcescens", "experiment": "Activity in vivo: survival of intraperitoneally infected mice", "conditions": "sc, 96 h, 1 h and 3 h after infection, survival on 4th day, read-out: CD50 (dosage at which 50% of the animals survive)", "procedure,_shortened": "as §1"}},
  "note": "Like-named read-outs stand apart in the source and are kept apart here.",
  "data": [
    {"smiles": "CO/N=C(\\C(=O)N[C@@H]1C(=O)N2C(C(=O)OCOC(=O)C(C)(C)C)=C(C)CS[C@H]12)c1c[se]c(N)n1", "note": "[Product H, Methylene (6R, 7R)-7-[2-(2-amino-4-selenazolyl)-2-[(Z)-methoxyimino]-acetamido]-3-methyl-8-oxo-5-thia-1-azabicyclo[4.2.0]oct-2-ene-2-carboxylate pivalate]", "values": [
      {"measurement": "ED50", "setting": "[1]", "result": 0.11, "unit": "mg/kg"},
      {"measurement": "ED50", "setting": "[2]", "result": 0.44, "unit": "mg/kg"},
      {"measurement": "ED50", "setting": "[3]", "result": "> 12", "unit": "mg/kg"},
      {"measurement": "ED50", "setting": "[4]", "result": 0.13, "unit": "mg/kg"},
      {"measurement": "ED50", "setting": "[5]", "result": "> 100", "unit": "mg/kg"},
      {"measurement": "LD50", "setting": "[6]", "result": "> 5000", "unit": "mg/kg"}
    ]},
    {"smiles": "CC1=C(C(=O)[O-])N2C(=O)[C@@H](NC(=O)/C(=N\\O)c3c[se]c(N)n3)[C@H]2SC1.[Na+]", "note": "[Product M, (6R, 7R)-7-[2-[2-amino-4-selenazolyl]-2-[(Z)-hydroxyimino]-acetamido]-3-methyl-8-oxo-5-thia-1-azabicyclo[4.2.0]oct-2-ene-2-carboxylic acid sodium salt]", "values": [
      {"measurement": "MIC", "setting": "[7]; Escherichia coli strain 1", "result": 0.8, "unit": "µg/mL"},
      {"measurement": "MIC", "setting": "[7]; Escherichia coli strain 2", "result": 0.4, "unit": "µg/mL"},
      {"measurement": "MIC", "setting": "[7]; Escherichia coli strain 3", "result": 50, "unit": "µg/mL"},
      {"measurement": "MIC", "setting": "[7]; Escherichia coli strain 4", "result": 200, "unit": "µg/mL"},
      {"measurement": "MIC", "setting": "[7]; Escherichia coli strain 5", "result": 3.1, "unit": "µg/mL"},
      {"measurement": "MIC", "setting": "[8]; Proteus mirabilis strain 3", "result": 0.8, "unit": "µg/mL"},
      {"measurement": "MIC", "setting": "[8]; Proteus mirabilis strain 4", "result": 6.3, "unit": "µg/mL"},
      {"measurement": "MIC", "setting": "[8]; Proteus mirabilis strain 5", "result": 1.6, "unit": "µg/mL"},
      {"measurement": "MIC", "setting": "[9]", "result": 100, "unit": "µg/mL"},
      {"measurement": "MIC", "setting": "[10]", "result": 0.2, "unit": "µg/mL"},
      {"measurement": "MIC", "setting": "[11]", "result": 0.05, "unit": "µg/mL"},
      {"measurement": "MIC", "setting": "[12]; Klebsiella pseumoniae strain 1", "result": 0.8, "unit": "µg/mL"},
      {"measurement": "MIC", "setting": "[12]; Klebsiella pseumoniae strain 2", "result": 0.4, "unit": "µg/mL"},
      {"measurement": "MIC", "setting": "[12]; Klebsiella pseumoniae strain 3", "result": 0.4, "unit": "µg/mL"},
      {"measurement": "MIC", "setting": "[13]; Serratia marcescens strain 1", "result": 25, "unit": "µg/mL"},
      {"measurement": "MIC", "setting": "[13]; Serratia marcescens strain 2", "result": 100, "unit": "µg/mL"},
      {"measurement": "MIC", "setting": "[13]; Serratia marcescens strain 3", "result": 6.3, "unit": "µg/mL"},
      {"measurement": "MIC", "setting": "[14]; Enterobacter cloacae strain 1", "result": "> 200", "unit": "µg/mL"},
      {"measurement": "MIC", "setting": "[14]; Enterobacter cloacae strain 2", "result": "> 200", "unit": "µg/mL"},
      {"measurement": "MIC", "setting": "[14]; Enterobacter cloacae strain 3", "result": "> 200", "unit": "µg/mL"},
      {"measurement": "MIC", "setting": "[15]; Enterobacter aerogenes strain 1", "result": 0.4, "unit": "µg/mL"},
      {"measurement": "MIC", "setting": "[15]; Enterobacter aerogenes strain 2", "result": 1.6, "unit": "µg/mL"},
      {"measurement": "MIC", "setting": "[16]; Citrobacter freundii strain 1", "result": 100, "unit": "µg/mL"},
      {"measurement": "MIC", "setting": "[16]; Citrobacter freundii strain 2", "result": 1.6, "unit": "µg/mL"},
      {"measurement": "MIC", "setting": "[17]; Pseudomonas aeruginosa strain 1", "result": "> 400", "unit": "µg/mL"},
      {"measurement": "MIC", "setting": "[17]; Pseudomonas aeruginosa strain 3", "result": "> 400", "unit": "µg/mL"},
      {"measurement": "MIC", "setting": "[18]; Staphylococcus aureus strain 1", "result": 3.1, "unit": "µg/mL"},
      {"measurement": "MIC", "setting": "[18]; Staphylococcus aureus strain 2", "result": 6.3, "unit": "µg/mL"},
      {"measurement": "MIC", "setting": "[18]; Staphylococcus aureus strain 3", "result": 3.1, "unit": "µg/mL"},
      {"measurement": "MIC", "setting": "[18]; Staphylococcus aureus strain 4", "result": 6.3, "unit": "µg/mL"},
      {"measurement": "MIC", "setting": "[19]", "result": 3.1, "unit": "µg/mL"},
      {"measurement": "MIC", "setting": "[20]; Streptococcus faecalis strain 1", "result": 200, "unit": "µg/mL"},
      {"measurement": "MIC", "setting": "[20]; Streptococcus faecalis strain 2", "result": "> 200", "unit": "µg/mL"},
      {"measurement": "MIC", "setting": "[21]; Streptococcus pyogenes strain 1, read-out: Minimum inhibitory concentration", "result": 1.6, "unit": "µg/mL"},
      {"measurement": "MIC", "setting": "[21]; Streptococcus pyogenes strain 2, read-out: Minimum inhibitory concentration", "result": 0.1, "unit": "µg/mL"},
      {"measurement": "MIC", "setting": "[22]", "result": 6.3, "unit": "µg/mL"},
      {"measurement": "MIC", "setting": "[23]", "result": 25, "unit": "µg/mL"},
      {"measurement": "ED50", "setting": "[1]", "result": 1, "unit": "mg/kg"},
      {"measurement": "ED50", "setting": "[24]; mice infected i.p. with Serratia marcescens strain 1, s.c. twice", "result": 3.5, "unit": "mg/kg"},
      {"measurement": "ED50", "setting": "[24]; mice infected i.p. with Serratia marcescens strain 2, s.c. twice", "result": "> 50", "unit": "mg/kg"},
      {"measurement": "ED50", "setting": "[3]", "result": 2.7, "unit": "mg/kg"},
      {"measurement": "ED50", "setting": "[4]", "result": 0.28, "unit": "mg/kg"}
    ]}
  ]
}
